Data on one compound can be found in patent US20100144853A1, “NOVEL COMBINED ADMINISTRATION” (priority 2008, published 2010).

Assay type in all cases: in vitro ADME
For data set [1], the system named is Lipase from Hog Pancreas. Put plainly: Stability of COMPOUND A with Lipase, Procedure B (premix of COMPOUND B and COMPOUND A, then Lipase). The note with it: 10 min, 0.55 mg/mL (11 U/mL) Lipase. How it is done: 240 mg Lipase (Lipase from Hog Pancreas, 20.6 U/mg Lipase, CAS No. 9001-62-1, Fluka, Art. No. 62300) were weighed into a vial and dissolved by stirring in 10 mL phosphate buffered saline solution pH 6.5. Any undissolved material was removed by centrifugation during 5 min at 5000 rpm. The supernatant was used for the experiments and diluted with PBS to obtain the Lipase at the final concentration of 0.55 mg/mL.
Procedure B (Premix of COMPOUND B and COMPOUND A, Followed by Addition of Lipase):
(§1) 100 μL of drug solution (stock A) were mixed with 0, 12, 25 or 50 μL esterase inhibitor solution (stock B) and 100, 88, 75 or 50 μL of FeSSIF concentrate (Lecithin37.5 mM and Sodium taurocholate 150 mM) were added to make up 200 μL of a solution with COMPOUND B concentrations of 0, 12, 25 or 50 μg/mL. At time zero, 800 μL of Lipase in phosphate buffered saline solution (from stock C to obtain final enzyme concentrations of 0.55 mg/mL) were added. The reaction mixture was incubated at 37° C. and stopped after 10 minutes by diluting one part of the reaction mixture with 3 parts Isopropanol.

In data set [2] the test system is Lipase from Hog Pancreas. Put plainly: Stability of COMPOUND A with Lipase, Procedure B' (as B, lower COMPOUND B concentrations). The note with it: after 10 min incubation, 0.55 mg/mL (11 U/mL) Lipase. As for the experimental part: as §1
Procedure B′ (Premix of COMPOUND B and COMPOUND A, Followed by Addition of Lipase):
The tests were repeated as described under procedure B but with final COMPOUND B concentrations of 0, 3, 6, 12 μg/ml.

Data set [3] is described as follows: Stability of COMPOUND A in human intestinal fluids, Procedure E (suspension, excess separated by centrifugation), fasted. The note with it: HIF-fasted. As for the experimental part: Fasted Intestinal Fluids: the fluids from 4 different subjects were collected with a naso-jejunal tube after fasting overnight and pooled.
Procedure E (COMPOUND A and COMPOUND B in Suspension, Excess Compound Separated by Centrifugation):
Stock J=COMPOUND B suspension (2 mg/mL)
100 μL of FeSSIF concentrate and 900 μL of pro-FeSSIF pH6.5 were added to 4 mg commercially available Orlistat formulation (Xenical®) containing 2 mg of lipase inhibitor 1-(3-hexyl-4-oxo-oxetan-2-yl)tridecan-2-yl 2-formyl-amino-4-methyl-pentanoate (COMPOUND B) in a vial and the formulation was dispersed by gently stirring during 15 min to obtain a fine homogenous suspension.
500 μL of freshly thawed intestinal fluids (fasted and stimulated state) were added to 1 mg of COMPOUND A in a 1 mL glass vial immediately followed by the addition of either 0, 10 or 20 μL of COMPOUND B suspension (stock J) corresponding to 0, 40 or 80 μg/mL of COMPOUND B. The amount of COMPOUND B was 0, 2% or 4% COMPOUND B relative to COMPOUND A. The mixture was incubated at 37° C. with gentle stirring. Samples of 90 μL were removed as function of time and centrifuged at 13′000 rpm (about 12′000×g) for 5 min. 50 μL of the supernatant was diluted with 150 μL isopropanol, centrifuged at 5′000 rpm for 5 min and the clear supernatant was analyzed by HPLC.

On to `CCC(CC)CC1(C(=O)Nc2ccccc2SC(=O)C(C)C)CCCCC1` [COMPOUND A, thioisobutyric acid S-(2-{[1-(2-ethyl-butyl)-cyclohexanecarbonyl]-amino}-phenyl)ester], for which the “Concentration of COMPOUND A” value came out at 23.0 µg/mL in data set [1] (COMPOUND B 0 μg/mL); 46.4 µg/mL in data set [1] (COMPOUND B 12 μg/mL); 46.5 µg/mL in data set [1] (COMPOUND B 25 μg/mL); 46.1 µg/mL in data set [1] (COMPOUND B 50 μg/mL); 14.2 µg/mL in data set [2] (COMPOUND B 0 μg/ml); 45.9 µg/mL in data set [2] (COMPOUND B 3 μg/ml). Also, the “Concentration of COMPOUND A” value is 46.5 µg/mL in data set [2] (COMPOUND B 6 μg/ml); 45.7 µg/mL in data set [2] (COMPOUND B 12 μg/ml); 1.12 µg/mL in data set [3] (with 40 μg/mL of COMPOUND B, 15 min); 11.75 µg/mL in data set [3] (with 40 μg/mL of COMPOUND B, 30 min); 111.05 µg/mL in data set [3] (with 40 μg/mL of COMPOUND B, 1 h); 217.35 µg/mL in data set [3] (with 40 μg/mL of COMPOUND B, 2 h). Moreover, the “Concentration of COMPOUND A” value in data set [3] (with 40 μg/mL of COMPOUND B, 4 h) was determined as 281.66 µg/mL; in data set [3] (with 80 μg/mL of COMPOUND B, 15 min), 5.62 µg/mL; in data set [3] (with 80 μg/mL of COMPOUND B, 30 min), 16.36 µg/mL; in data set [3] (with 80 μg/mL of COMPOUND B, 1 h), 89.60 µg/mL; in data set [3] (with 80 μg/mL of COMPOUND B, 2 h), 230.34 µg/mL; in data set [3] (with 80 μg/mL of COMPOUND B, 4 h), 336.00 µg/mL. For the same compound, the “Concentration of COMPOUND A” value in data set [3] (without COMPOUND B, 15 min) was determined as 1.62 µg/mL; in data set [3] (without COMPOUND B, 30 min), 1.86 µg/mL; in data set [3] (without COMPOUND B, 1 h) it was 0.49 µg/mL; in data set [3] (without COMPOUND B, 2 h), 0.49 µg/mL; in data set [3] (without COMPOUND B, 4 h) it was 0.49 µg/mL.
